Experimental findings from US20080125424A1, “Derivatives of urea and related diamines, methods for their manufacture, and uses therefor” (priority 2006, published 2008) are described below.

The test deals with T1, human parathyroid cell Ca2+ receptor (hPCaR) (Homo sapiens, UniProt P41180).
T1 construct: expressed in transfected cells
T1 sequence (P41180 20-1078): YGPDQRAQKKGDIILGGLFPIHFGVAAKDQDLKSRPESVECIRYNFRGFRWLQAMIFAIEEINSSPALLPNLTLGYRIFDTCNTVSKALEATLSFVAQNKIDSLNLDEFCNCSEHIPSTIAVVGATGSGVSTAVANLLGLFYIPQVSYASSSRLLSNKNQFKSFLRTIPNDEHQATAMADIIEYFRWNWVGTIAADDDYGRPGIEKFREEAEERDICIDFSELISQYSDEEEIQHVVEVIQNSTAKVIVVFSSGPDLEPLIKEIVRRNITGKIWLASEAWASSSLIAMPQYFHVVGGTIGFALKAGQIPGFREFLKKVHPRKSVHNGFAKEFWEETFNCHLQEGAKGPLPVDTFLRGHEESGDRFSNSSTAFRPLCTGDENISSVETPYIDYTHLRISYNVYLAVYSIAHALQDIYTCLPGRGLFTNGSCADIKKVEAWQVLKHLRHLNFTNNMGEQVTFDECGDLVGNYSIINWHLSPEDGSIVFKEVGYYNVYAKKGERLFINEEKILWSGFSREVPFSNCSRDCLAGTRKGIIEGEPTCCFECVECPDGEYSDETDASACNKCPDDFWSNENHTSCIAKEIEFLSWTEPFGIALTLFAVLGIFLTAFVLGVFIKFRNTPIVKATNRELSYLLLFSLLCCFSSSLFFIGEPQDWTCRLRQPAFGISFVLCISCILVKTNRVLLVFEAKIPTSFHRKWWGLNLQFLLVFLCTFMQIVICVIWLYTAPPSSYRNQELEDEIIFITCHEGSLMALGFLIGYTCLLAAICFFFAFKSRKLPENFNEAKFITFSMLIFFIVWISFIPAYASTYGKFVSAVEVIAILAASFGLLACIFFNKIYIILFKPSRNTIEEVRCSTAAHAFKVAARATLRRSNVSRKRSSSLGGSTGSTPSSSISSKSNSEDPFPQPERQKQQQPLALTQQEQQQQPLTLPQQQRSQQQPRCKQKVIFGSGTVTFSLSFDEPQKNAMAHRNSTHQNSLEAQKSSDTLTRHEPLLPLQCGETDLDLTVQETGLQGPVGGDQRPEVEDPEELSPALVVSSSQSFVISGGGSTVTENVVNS
The test can be described thus: [Ca2+]i fluorescence assay in HEK 293 4.0-7 cells expressing hPCaR. Type of test: cell-based. The settings on record: buffer with 1 mM CaCl2. The method in brief:
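HEK 293 clone 4.0-7 stably expressing human parathyroid Ca2+ receptor, seeded overnight, then loaded 90 min at room temperature with calcium dye in parathyroid cell buffer (pH 7.45) with 0.5% BSA and 1 mM CaCl2. Fluorescence after compound addition read at ex 485/em 530 nm.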
By EC50 is commonly meant the concentration needed to bring the measured effect to its halfway point. `O=C1CC[C@H](NCCN(CCC(c2ccccc2)c2ccccc2)C(=O)Nc2nc(-c3ccccc3)c(Cl)s2)CN1` [Example 142, (S)-3-(5-chloro-4-phenylthiazol-2-yl)-1-(3,3-diphenylpropyl)-1-(2-(6-oxopiperidin-3-ylamino)ethyl)urea]: the EC50 was under 100 nM.
The value for `CS(=O)(=O)Nc1ccc(-c2nc(NC(=O)N(CCN[C@@H]3CCCNC3)CCC(c3ccccc3)c3ccccc3)sc2Cl)cc1` [Example 140, (R)-3-(5-chloro-4-(4-(methylsulfonamido)phenyl)thiazol-2-yl)-1-(3,3-diphenylpropyl)-1-(2-(piperidin-3-ylamino)ethyl)urea] was under 100 nM; that for `O=C(Nc1nc2ccccc2s1)N(CCNC1CCOCC1)CCC(c1ccccc1)c1ccccc1` [Example 156, 3-Benzothiazol-2-yl-1-(3,3-diphenyl-propyl)-1-[2-(tetrahydro-pyran-4-ylamino)-ethyl]-urea] was 1000 to 5000 nM.
For `CSCCCN(CCC(c1ccccc1)c1ccccc1)C(=O)Nc1nc(-c2ccc(NS(C)(=O)=O)cc2)c(Cl)s1` [Example 138, 3-(5-chloro-4-(4-(methylsulfonamido)phenyl)thiazol-2-yl)-1-(3,3-diphenylpropyl)-1-(3-(methylthio)propyl)urea] the value was under 100 nM; for `O=C(NCCCCN(CCC(c1ccccc1)c1ccccc1)C(=O)Nc1nc2ccccc2s1)C1CCNCC1` [Example 127, 3-(benzo[d]thiazol-2-yl)-1-(3,3-diphenylpropyl)-1-(4-(piperidine-4-carboxamido)butyl)urea], under 100 nM.
`N#Cc1ccc(-c2nc(NC(=O)N(CCCC(=O)O)CCC(c3ccccc3)c3ccccc3)sc2Cl)cc1` [Example 92, 4-(3-(5-chloro-4-(4-cyanophenyl)thiazol-2-yl)-1-(3,3-diphenylpropyl)ureido)butanoic acid]: the 50% effective concentration (EC50) was 100 to 1000 nM.
For `O=C(CCCN(CCC(c1ccccc1)c1ccccc1)C(=O)Nc1nc2ccccc2s1)N1CCOCC1` [Example 94, 3-(benzo[d]thiazol-2-yl)-1-(3,3-diphenylpropyl)-1-(4-morpholino-4-oxobutyl)urea] the value was 100 to 1000 nM; for `O=C(NCCCCN(CCC(c1ccccc1)c1ccccc1)C(=O)Nc1nc2ccccc2s1)C1CCCCN1` (stereo not shown) [Example 128, 3-(benzo[d]thiazol-2-yl)-1-(3,3-diphenylpropyl)-1-(4-(piperidine-2-carboxamido)butyl)urea], under 100 nM; for `O=C(CCCN(CCC(c1ccccc1)c1ccccc1)C(=O)Nc1nc2ccccc2s1)NC1CCNCC1` [Example 75, 3-(benzo[d]thiazol-2-yl)-1-(3,3-diphenylpropyl)-1-(4-oxo-4-(piperidin-4-ylamino)butyl)urea], under 100 nM.
The value for `CS(=O)(=O)Nc1ccc(-c2nc(NC(=O)NCCC(c3ccccc3)c3ccccc3)sc2Cl)cc1` [Example 176, 1-(5-chloro-4-(4-(methylsulfonamido)phenyl)thiazol-2-yl)-3-(3,3-diphenylpropyl)urea] was 100 to 1000 nM; that for `CS(=O)(=O)c1ccc(-c2csc(NC(=O)N(CCC(=O)O)CCC(c3ccccc3)c3ccccc3)n2)cc1` [Example 119, 3-(1-(3,3-diphenylpropyl)-3-(4-(4-(methylsulfonyl)phenyl)thiazol-2-yl)ureido)propanoic acid] was 100 to 1000 nM.
`CCOC(=O)C1CC1CNCCN(CCC(c1ccccc1)c1ccccc1)C(=O)Nc1nc2ccccc2s1` (stereo not shown) [Example 152, 2-({2-[3-Benzothiazol-2-yl-1-(3,3-diphenyl-propyl)-ureido]-ethylamino}-methyl)cyclopropanecarboxylic acid ethyl ester] displayed a concentration giving a half-maximal response (EC50) of 1000 to 5000 nM.
The molecule `O=C(NCCN(CCC(c1ccccc1)c1ccccc1)C(=O)Nc1nc2ccccc2s1)C1CCCNC1` (stereo not shown) [Example 129, 3-(benzo[d]thiazol-2-yl)-1-(3,3-diphenylpropyl)-1-(2-(piperidine-3-carboxamido)ethyl)urea] had a 50% effective concentration (EC50) of under 100 nM.
`O=C(Nc1nc2ccccc2s1)N(CCO)CCC(c1ccccc1)c1ccccc1` [Example 175, 3-Benzothiazol-2-yl-1-(3,3-diphenylpropyl)-1-(2-hydroxy-ethyl)-urea] registered an EC50 of 100 to 1000 nM.
The value for `CC(C)(C)OC(=O)CCCN(CCC(c1ccccc1)c1ccccc1)C(=O)Nc1nc2ccccc2s1` [Example 101, tert-butyl 4-(3-(benzo[d]thiazol-2-yl)-1-(3,3-diphenylpropyl)ureido)butanoate] was 100 to 1000 nM; that for `CS(=O)(=O)Nc1ccc(-c2nc(NC(=O)N(CCN[C@H]3CCCNC3)CCC(c3ccccc3)c3ccccc3)sc2Cl)cc1` [Example 141, (S)-3-(5-chloro-4-(4-(methylsulfonamido)phenyl)thiazol-2-yl)-1-(3,3-diphenylpropyl)-1-(2-(piperidin-3-ylamino)ethyl)urea] was under 100 nM.
The value for `CS(=O)(=O)Nc1ccc(-c2csc(NC(=O)N(CCCC(=O)NC3CCNCC3)CCC(c3ccccc3)c3ccccc3)n2)cc1` [Example 70, 1-(3,3-diphenylpropyl)-3-(4-(4-(methylsulfonamido)phenyl)thiazol-2-yl)-1-(4-oxo-4-(piperidin-4-ylamino)butyl)urea] was under 100 nM; that for `CC1OCCC1NCCN(CCC(c1ccccc1)c1ccccc1)C(=O)Nc1nc2ccccc2s1` (stereo not shown) [Example 157, 3-Benzothiazol-2-yl-1-(3,3-diphenyl-propyl)-1-[2-(2-methyl-tetrahydro-furan-3-ylamino)-ethyl]-urea] was under 100 nM.
`O=C(CCCN(CCC(c1ccccc1)c1ccccc1)C(=O)Nc1nc2ccccc2s1)N[C@H]1CCCNC1` [Example 74, (S)-3-(benzo[d]thiazol-2-yl)-1-(3,3-diphenylpropyl)-1-(4-oxo-4-(piperidin-3-ylamino)butyl)urea]: the EC50 was under 100 nM.
The value for `CC(C)(C)OC(=O)CN1CCC(NCCN(CCC(c2ccccc2)c2ccccc2)C(=O)Nc2nc3ccccc3s2)CC1` [Example 158, (4-{2-[3-Benzothiazol-2-yl-1-(3,3-diphenyl-propyl)-ureido]-ethylamino}-piperidin-1-yl)acetic acid tert-butyl ester] was 100 to 1000 nM; that for `CC(C)(C)OC(=O)N1CCN(C(=O)CCCN(CCC(c2ccccc2)c2ccccc2)C(=O)Nc2nc(-c3ccccc3)cs2)CC1` [Example 96, tert-butyl 4-(4-(1-(3,3-diphenylpropyl)-3-(4-phenylthiazol-2-yl)ureido)butanoyl)piperazine-1-carboxylate] was 100 to 1000 nM; that for `O=C(CCN(CCC(c1ccccc1)c1ccccc1)C(=O)Nc1nc2ccccc2s1)N1CCNCC1` [Example 106, 3-(benzo[d]thiazol-2-yl)-1-(3,3-diphenylpropyl)-1-(3-oxo-3-(piperazin-1-yl)propyl)urea] was 100 to 1000 nM.
The value for `O=C(Nc1nc2ccccc2s1)N(CCNC1CCNCC1)CCC(c1ccccc1)c1ccccc1` [Example 143, 3-(benzo[d]thiazol-2-yl)-1-(3,3-diphenylpropyl)-1-(2-(piperidin-4-ylamino)ethyl)urea] was under 100 nM.
As for `COC(CNCCN(CCC(c1ccccc1)c1ccccc1)C(=O)Nc1nc2ccccc2s1)OC` [Example 153, 3-Benzothiazol-2-yl-1-[2-(2,2-dimethoxy-ethylamino)-ethyl]-1-(3,3-diphenyl-propyl)urea], the concentration giving a half-maximal response (EC50) lay in the range of 100 to 1000 nM.
In turn, `CC(=O)N1CCN(C(=O)CCCN(CCC(c2ccccc2)c2ccccc2)C(=O)Nc2nc(-c3ccccc3)cs2)CC1` [Example 84, 1-(4-(4-acetylpiperazin-1-yl)-4-oxobutyl)-1-(3,3-diphenylpropyl)-3-(4-phenylthiazol-2-yl)urea] returned a 50% effective concentration (EC50) of under 100 nM.
The molecule `O=C(O)CCN(CCC(c1ccccc1)c1ccccc1)C(=O)Nc1nc(-c2ccccc2)cs1` [Example 126, 3-(1-(3,3-diphenylpropyl)-3-(4-phenylthiazol-2-yl)ureido)propanoic acid] came in with a 50% effective concentration (EC50) of 1000 to 5000 nM.
For `CSCCN(CCC(c1ccccc1)c1ccccc1)C(=O)Nc1nc(-c2ccc(NS(C)(=O)=O)cc2)c(Cl)s1` [Example 137, 3-(5-chloro-4-(4-(methylsulfonamido)phenyl)thiazol-2-yl)-1-(3,3-diphenylpropyl)-1-(2-(methylthio)ethyl)urea], the half-maximal effective concentration (EC50) was under 100 nM.
For `CN1CCN(C(=O)CCCN(CCC(c2ccccc2)c2ccccc2)C(=O)Nc2nc3ccccc3s2)CC1` [Example 108, 3-(benzo[d]thiazol-2-yl)-1-(3,3-diphenylpropyl)-1-(4-(4-methylpiperazin-1-yl)-4-oxobutyl)urea] the value was 100 to 1000 nM.
